Experimental data published in US12285013B2, “Processing method for increasing seed production rate of seed fruits of Cucumis sativus L” (Yangzhou University, priority 2023, dated 2025).

System: seed fruits of Cucumis sativus L.
Assay: Soaking and dipping of female flowers of seed fruits of Cucumis sativus L. in the pollination stage
Assay type: in vivo
Conditions: 50 μM solution with Tween 80 10000:1, greenhouse
Procedure: A processing method for increasing seed production efficiency of seed fruits of Cucumis sativus L., comprising the following steps: • (1) Preparing a plant growth regulator according to a formula proportion; • Preparing a 5-azacytidine solution with a concentration of 50 μM, adding an emulsifier Tween 80 at the same time, and mixing the 5-azacytidine solution and the emulsifier Tween 80 at a proportion of 10000:1 to obtain the plant growth regulator; • (2) Selecting seed fruits of Cucumis sativus L. growing naturally in a greenhouse and reaching a pollination stage, and dipping female flowers thereof with the plant growth regulator prepared in step (1) before pollination; • (3) Picking male flowers for pollination after the female flowers are completely dry; • (4) Dipping the pollinated female flowers again; • (5) Conducting field routine cultivation management.
In step (2), the preserved solution of the prepared plant growth regulator is poured into any container, and the female flowers of the seed fruits of Cucumis sativus L. reaching a pollination stage are completely immersed in the plant growth regulator in the container for at least 5 seconds.
In step (2), in the greenhouse, the temperature is stabilized at 20° C.-35° C., the humidity is 70%-90%, the pH value of the cultivation soil is 6.5, a selected species of Cucumis sativus L. is a species of North China Cucumis sativus L. used for seed production, a row spacing for seed fruit cultivation is fixed at 75 cm, a planting distance is 25 cm, and the number of plants planted in each row is 80.
Step (3) is specifically as follows: picking male flowers blooming on the same plant, removing all petals, poking stamens of the male flowers into the female flowers after the female flowers soaked and dipped by the plant growth regulator are completely dry, and repeating the process for multiple times to increase pollination success rate.
Step (4) is specifically as follows: repeating the soaking and dipping treatment described in step (2) for successfully pollinated female flowers of Cucumis sativus L. on the third day after pollination.
In a third aspect of the present invention, a processing method for increasing seed production efficiency of seed fruits of Cucumis sativus L. is provided, which mainly comprises the following steps: • (1) Preparing a reagent. Specifically: preparing a 5-azacytidine solution with a concentration of 50 μM, adding an emulsifier Tween 80 at the same time according to a proportion of 10000:1, and preserving the reagent in a refrigerator at 4° C. • (2) Selecting seed fruits of Cucumis sativus L. growing naturally in a greenhouse and reaching a pollination stage, and dipping female flowers thereof with the reagent prepared in step (1) before pollination. […]

[1] = female flowers dipped before pollination and on the third day after

Nc1ncn([C@@H]2O[C@H](CO)[C@@H](O)[C@H]2O)c(=O)n1 [5-azacytidine]
fruit length of the seed fruits [1]: significantly reduced
number of seeds of the seed fruits [1]: without affecting
seed production efficiency of the seed fruits [1]: increased
weight of Cucumis sativus L. (fruit weight) (female flowers treated in the pollination stage): significantly reduce
